In patent US8658801B2, “Pesticides containing a bicyclic bisamide structure” (Syngenta Crop Protection, LLC, priority 2006, dated 2014):

How the values were obtained:
[1] = system: Spodoptera littoralis (Egyptian Cotton Leafworm); assay: Example B1: activity against Spodoptera littoralis, larvicide, feeding/residual contact, preventive (cotton leaf discs); assay type: in vivo; settings: foliar, 72 h, 3 days after treatment, L1 larvae
Excerpt: Activity Against Spodoptera littoralis (Egyptian Cotton Leafworm)
(§1) (Larvicide, Feeding/Residual Contact Activity, Preventive)
The samples are checked for mortality, repellent effect, feeding behaviour, and growth regulation 3 days after treatment. In this test, compounds listed in Table P above show good activity. In particular compounds P.1, P.2, P.3, P.4, P.5, P.6, P.7, P.9, P.10, P.11, P.12, P.13, P.15, P.16, P.17, P.18, P.19, P.20, P.21, P.22, P.23, P.24, P.25, P.26, P.27, P.28, P.29, P.30, P.31, P.32, P.33, P.34, P.35, P.36, P.37, P.38, P.39, P.40, P.41, P.42, P.43, P.44, P.45, P.46, P.47, P.48, P.49, P.50, P.51, P.52, P.53, P.54, P.55, P.56, P.57, P.58, P.59, P.60, P.61, P.63, P.64, P.67, P.68 and P.70 show an activity of over 80% at a concentration of 400 ppm.

[2] = system: Plutella xylostella (Diamond Back Moth); assay: Example B3: Plutella xylostella, larvicide, feeding/residual contact, preventive (artificial diet MTP); assay type: in vivo; settings: 120 h, 5 days incubation, L2 larvae
Experimental: Plutella xylostella (Diamond Back Moth)
as §1
24-well microtiter plate (MTP) with artificial diet is treated with test solutions by pipetting. After drying, the MTP's are infested with larvae (L2)(10-15 per well). After an incubation period of 5 days, samples are checked for larval mortality, antifeedant and growth regulation. In this test, compounds listed in Table P above show good activity. In particular compounds P.1, P.2, P.3, P.4, P.5, P.6, P.7, P.9, P.10, P.11, P.12, P.13, P.15, P.16, P.17, P.18, P.19, P.20, P.21, P.22, P.23, P.25, P.26, P.27, P.28, P.29, P.30, P.31, P.32, P.33, P.34, P.35, P.36, P.37, P.38, P.39, P.40, P.41, P.42, P.43, P.44, P.46, P.47, P.48, P.49, P.50, P.51, P.52, P.53, P.54, P.55, P.56, P.57, P.58, P.59, P.60, P.61, P.63, P.64, P.67, P.68, P.69 P.70, P.72, P.74, P.77, P78 and P.79 show an activity of over 80% at a concentration of 400 ppm.

[3] = system: Heliothis virescens (Tobacco Budworm); assay: Example B2: activity against Heliothis virescens, ovo-larvicide, feeding/contact, curative; assay type: in vivo; settings: 96 h, 4 days incubation, eggs 0-24 h old
Experimental: Activity Against Heliothis virescens (Tobacco Budworm)
(Ovo-Larvicide, Feeding/Contact Activity, Curative)
Eggs (0-24 h old) are placed in 24-well microtiter plate on artificial diet and treated with test solutions by pipetting. After an incubation period of 4 days, samples are checked for egg mortality, larval mortality, and growth regulation.

[4] = system: Diabrotica balteata (Corn Root Worm); assay: Example B4: Diabrotica balteata, larvicide, feeding/residual contact, preventive; assay type: in vivo; settings: 120 h, 5 days incubation, L2 larvae
Experimental: Diabrotica balteata (Corn Root Worm)
as §1
After drying, the MTP's are infested with larvae (L2)(6-10 per well). After an incubation period of 5 days, samples are checked for larval mortality, antifeedant and growth regulation. In this test, compounds listed in Table P above show good activity. In particular compounds P.1, P.2, P.5, P.6, P.10, P.11, P.12, P.13, P.15, P.16, P.17, P.18, P.19, P.24, P.25, P.27, P.28, P.29, P.30, P.31, P.33, P.34, P.35, P.37, P.38, P.39, P.42, P.43, P.44, P.45, P.46, P.47, P.48, P.49, P.50, P.52, P.53, P.65, P.67, P.68, P.69, P.70, P.71, P.72, P.75, P.78, and P.79 show an activity of over 80% at a concentration of 400 ppm.

[5] = system: Thrips tabaci (Onion Thrips); assay: Example B7: activity against Thrips tabaci, mixed population, feeding/residual contact, preventive; settings: 144 h, read-out: activity
[6] = system: Myzus persicae (Green Peach Aphid); assay: Example B5: activity against Myzus persicae, mixed population, feeding/residual contact, preventive (sunflower leaf discs); settings: foliar, 144 h, read-out: activity

Measured: pest or weed control at 400 ppm

Cc1cc2c(ccc(C)[n+]2[O-])c(C(=O)NC(C)C)c1NC(=O)c1cc(C(F)(F)F)nn1-c1ncccc1Cl [P.21]
> 80%: [1] | [2] | [3]

CC(C)NC(=O)c1c(NC(=O)c2cc(C(F)(F)F)nn2-c2ncccc2Cl)ccc2cc[nH]c12 [P.1]
> 80%: [4] | [1] | [2] | [3]

CC(C)NC(=O)c1c(NC(=O)c2cc(C(F)(F)F)nn2-c2ncccc2Cl)ccc2cn[nH]c12 [P.3]
> 80%: [1] | [2] | [5] | [3]

CC(C)(CS(C)(=O)=O)NC(=O)c1c(NC(=O)c2cc(C(F)(F)F)nn2-c2ncccc2Cl)ccc2cn[nH]c12 [P.9]
> 80%: [6] | [1] | [2] | [3]

CSCC(C)(C)NC(=O)c1c(NC(=O)c2cc(C(F)(F)F)nn2-c2ncccc2Cl)ccc2cn[nH]c12 [P.7]
> 80%: [1] | [2] | [3]

CC(C)NC(=O)c1c(NC(=O)c2cc(C(F)(F)F)nn2-c2ncccc2Cl)c(Cl)cc2c(Br)n[nH]c12 [P.67]
not listed: [6]
> 80%: all other assays above

N#Cc1cc2cn[nH]c2c(C(=O)NC2(C3CC3)CC2)c1NC(=O)c1cc(C(F)(F)F)nn1-c1ncccc1Cl [P.26]
> 80%: [1] | [2] | [5] | [3]

CC(C)NC(=O)c1c(NC(=O)c2cc(C(F)(F)F)nn2-c2ncccc2Cl)c(Br)cc2cn[nH]c12 [P.16]
> 80%: all assays above

CNC(=O)c1c(NC(=O)c2cc(C(F)(F)F)nn2-c2ncccc2Cl)ccc2cn[nH]c12 [P.6]
> 80%: [4] | [1] | [2] | [3]

O=C(NC1(C2CC2)CC1)c1c(NC(=O)c2cc(C(F)(F)F)nn2-c2ncccc2Cl)ccc2cn[nH]c12 [P.5]
> 80%: [4] | [1] | [2] | [3]

CCCc1nc2cc(C)c(NC(=O)c3cc(C(F)(F)F)nn3-c3ncccc3Cl)c(C(=O)NC(C)C)c2cc1CC [P.24]
> 80%: [4] | [1]

CNC(=O)c1c(NC(=O)c2cc(C(F)(F)F)nn2-c2ncccc2Cl)ccc2cccnc12 [P.74, 7-{[2-(3-chloro-pyridin-2-yl)-5-trifluoromethyl-2H-pyrazole-3-carbonyl]-amino}-quinoline-8-carboxylic acid methylamide]
> 80%: [2] | [3]

CNC(=O)c1c(NC(=O)c2cc(C(F)(F)F)nn2-c2ncccc2Cl)c(C)cc2ncccc12 [P.77, 6-{[2-(3-chloro-pyridin-2-yl)-5-trifluoromethyl-2H-pyrazole-3-carbonyl]-amino}-7-methyl-quinoline-5-carboxylic acid methylamide]
> 80%: [2] | [3]

O=C(NCC1CC1)c1c(NC(=O)c2cc(C(F)(F)F)nn2-c2ncccc2Cl)ccc2cn[nH]c12 [P.4]
> 80%: [1] | [2] | [3]

CC(C)NC(=O)c1c(NC(=O)c2cc(C(F)(F)F)nn2-c2ncccc2Cl)ccc2ncccc12 [P.75, 6-{[2-(3-chloro-pyridin-2-yl)-5-trifluoromethyl-2H-pyrazole-3-carbonyl]-amino}-quinoline-5-carboxylic acid isopropylamide]
> 80%: [4]

Cc1n[nH]c2c(C(=O)NC3(C4CC4)CC3)c(NC(=O)c3cc(C(F)(F)F)nn3-c3ncccc3Cl)c(Cl)cc12 [P.72, 5-chloro-6-{[2-(3-chloro-pyridin-2-yl)-5-trifluoromethyl-2H-pyrazole-3-carbonyl]-amino}-3-methyl-1H-indazole-7-carboxylic acid bicyclopropyl-1-ylamide]
> 80%: [4] | [2] | [3]

COc1cc(C(=O)Nc2c(Cl)cc3c(Br)n[nH]c3c2C(=O)NC2(C3CC3)CC2)n(-c2ncccc2Cl)n1 [P.64, 3-bromo-5-chloro-6-{[2-(3-chloro-pyridin-2-yl)-5-methoxy-2H-pyrazole-3-carbonyl]-amino}-1H-indazole-7-carboxylic acid bicyclopropyl-1-ylamide]
> 80%: [1] | [2] | [5] | [3]

O=C(NCC1CC1)c1c(NC(=O)c2cc(C(F)(F)F)nn2-c2ncccc2Cl)ccc2cc[nH]c12 [P.2]
not listed: [5]
> 80%: all other assays above

CCNC(=O)c1c(NC(=O)c2cc(C(F)(F)F)nn2-c2ncccc2Cl)c(C)cc2nc(C)ccc12 [P.23]
> 80%: [1] | [2] | [3]

C#Cc1cc2cn[nH]c2c(C(=O)NC2(C3CC3)CC2)c1NC(=O)c1cc(C(F)(F)F)nn1-c1ncccc1Cl [P.79, 6-{[2-(3-chloro-pyridin-2-yl)-5-trifluoromethyl-2H-pyrazole-3-carbonyl]-amino}-5-ethynyl-1H-indazole-7-carboxylic acid bicyclopropyl-1-ylamide]
> 80%: [4] | [2]

COc1cc(C(=O)Nc2c(Cl)cc3c(Br)n[nH]c3c2C(=O)NC(C)C)n(-c2ncccc2Cl)n1 [P.63, 3-bromo-5-chloro-6-{[2-(3-chloro-pyridin-2-yl)-5-methoxy-2H-pyrazole-3-carbonyl]-amino}-1H-indazole-7-carboxylic acid isopropylamide]
> 80%: [1] | [2] | [5] | [3]

Cc1n[nH]c2c(C(=O)NC(C)C)c(NC(=O)c3cc(C(F)(F)F)nn3-c3ncccc3Cl)c(Cl)cc12 [P.69, 5-chloro-6-{[2-(3-chloro-pyridin-2-yl)-5-trifluoromethyl-2H-pyrazole-3-carbonyl]-amino}-3-methyl-1H-indazole-7-carboxylic acid isopropylamide]
> 80%: [4] | [2] | [3]

O=C(NC1(C2CC2)CC1)c1c(NC(=O)c2cc(C(F)(F)F)nn2-c2ncccc2Cl)c(Cl)cc2c(Br)n[nH]c12 [P.68]
not listed: [6]
> 80%: all other assays above
